The results in this text go back to the METLIN SMRT retention time set (Domingo-Almenara et al. 2019).

The structures appear in SMILES notation.

This data set is described as follows: gradient 5% acetonitrile 3 min, to 50% in 2 min, to 85% in 15 min, held 3 min, 100 µL/min. The following applies: column: Zorbax Extend-C18 2.1 x 50 mm; eluents: water / acetonitrile, 0.1% formic acid. The procedure, abridged:
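Values are retention times taken from adduct peaks that software picked and an analyst inspected. The pure standards were run as mixtures of ~100 molecules on HPLC linked to a quadrupole time-of-flight mass spectrometer, in positive and negative ionization mode. A Zorbax Extend-C18 column (2.1 × 50 mm, 1.8 μm) was used at 100 μL/min with water and acetonitrile, each including 0.1% formic acid.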
Turning to `CCc1ccc(S(=O)(=O)N2CC(COC)C3(CCNCC3)C2)cc1` (stereo not given), the RP-LC retention time stood at 630 s. Take `CCn1cc(C(=O)N[C@H](C(=O)O)C(C)C)c(=O)c2cc3c(cc21)OCO3`: the RP-LC retention time was 681 s. The result for `Cc1nn(C(C)C(=O)N2CCC(N3CCCCC3)CC2)c(=O)c2nn(-c3ccccc3)c(C)c12` (stereo not given) reads 622 s; that for `COc1ccc(-c2nnc(N3CCC(C(=O)N4CCOCC4)CC3)o2)cc1`, 664 s.

In turn, `CCNC(=O)C1CCc2sc(C(=O)N3CCCCCC3)cc2C1` (stereo not given) yielded an RP-LC retention time of 748 s.

Molecule `O=C(c1ccccc1F)N1CCC(c2nc(-c3ccccc3)no2)C1` (stereo not given) gave an RP-LC retention time of 911 s. `N#Cc1cccc(-c2cn3c(n2)N(C(=O)CC2CCCC2)CCC3)c1` gave an RP-LC retention time of 848 s. The result for `O=S(=O)(Cc1ccccc1)N1CCC(n2c(-c3ccoc3)nc3cccnc32)C1` (stereo not given) reads 787 s; that for `C=CCn1c(C(=O)N2CCN(c3ccccn3)CC2)cc2cc(S(=O)(=O)N(C)C)ccc21`, 649 s. With `COC(=O)c1ccccc1NS(=O)(=O)c1ccc(Br)cc1`, the RP-LC retention time came out at 1030 s. For `Cn1c(=O)c(N2CCC(C(=O)NCCc3ccco3)CC2)nc2cccnc21` the value was 811 s. For `O=C(Cn1c(=O)cc(-c2nc(C3CC3)no2)c2ccccc21)NC1CCCCC1` the value was 932 s; for `Cc1ccc(-c2cn3c(CC(=O)NC4CCC(C)CC4)csc3n2)cc1C` (stereo not given), 938 s; for `CCn1ccc(C(=O)N2CCCC2c2cccc(F)c2)n1` (stereo not given), 840 s. For `CN(C)C(=O)c1csc(S(=O)(=O)N2CCC(C(=O)NCc3ccccc3Cl)CC2)c1` the value was 784 s; for `COc1ccc(C(=O)N2CCC3(C2)C(=O)N(C)c2ccccc23)c(OC)c1` (stereo not given), 759 s; for `O=C(NCCCN1CCCCCC1)C1CCCN(c2nn3c(=O)c4c(nc3s2)CCCC4)C1` (stereo not given), 592 s. With `O=C(COc1ccccc1)Nc1cnc(-c2cccnc2)nc1`, the RP-LC retention time amounted to 678 s.

For `O=C(NCc1ccco1)c1ccc(-n2nnc3cccnc32)cc1Cl`, the RP-LC retention time is 793 s. For `O=C(Cc1ccccc1)Nc1cccc(C(=O)Nc2ccccc2C(=O)O)c1` the value was 830 s; for `Cc1ccc(CNC(=O)CSCc2nc3cccnc3n2C2CCCCC2)o1`, 877 s.

The molecule `O=C(C(Cl)Cl)N1CC2CCC(CC2)C1` showed an RP-LC retention time of 956 s. The result for `CCOC(=O)c1c(C)c(-c2ccccc2)n(CC(=O)N2CCN(c3ccccn3)CC2)c1C` reads 729 s.

`COCCNC(=O)c1nc2ccccn2c1-c1ccc(Cl)cc1` came in with an RP-LC retention time of 731 s. In turn, `CCn1nnc2cc(-c3noc(CNC(=O)c4ccccc4)n3)ccc21` came in with an RP-LC retention time of 772 s.

`COc1ccc(C(CC(=O)NCCN2CCOCC2)N2Cc3ccccc3C2=O)cc1OC` (stereo not given) gave an RP-LC retention time of 603 s. The result for `COc1ccc(Cn2nc3c(S(=O)(=O)N4CCc5ccccc5C4)cccn3c2=O)cc1` reads 946 s. For `O=C(NC1CCCC1)c1cc(C2CC2)[nH]n1` the value was 692 s. For `O=C(Cn1c(-c2cccs2)cc2cc(Cl)ccc21)NCCN1CCOCC1` the value was 706 s; for `COc1ccc(-c2c(C)noc2NC(C)=O)cc1S(=O)(=O)NCc1ccc(C)o1`, 714 s. For `CCc1nc(-c2csc(S(=O)(=O)N3CCCC(C(=O)Nc4cc(F)ccc4F)C3)c2)no1` (stereo not given), the RP-LC retention time came to 1090 s. For `CN(C)CCNC(=O)c1cc(S(=O)(=O)N2CCOCC2)ccc1Cl`, the RP-LC retention time worked out at 563 s.

Turning to `CCn1c(=O)oc2cc(-c3noc(-c4cccc5[nH]ccc45)n3)ccc21`, the RP-LC retention time was 1000 s. `CN1C(=O)NC2(CCN(C(=O)c3cccs3)CC2)C1=O` displayed an RP-LC retention time of 561 s. For `O=C(NCc1ccco1)c1cnn2c(-c3ccc(Cl)cc3)ccnc12` the value was 945 s; for `O=C(Nc1cc(F)cc(F)c1)c1ccc(N2CCN(c3ccccn3)CC2)c([N+](=O)[O-])c1`, 698 s; for `O=C(CCNc1c(-c2cccc(F)c2)nc2cnccn12)NCc1ccc(F)c(Cl)c1`, 806 s. For `CCCNC(=O)N1CCN(Cc2nc3cc(-c4ccccc4)ccc3o2)CC1` the value was 722 s.

`COc1ccccc1N1CCN(c2ncc3c(n2)CCN(Cc2cccc(C)c2)C3)CC1`: the RP-LC retention time was found to be 705 s. The result for `O=C(Cn1nc2c(cc1=O)CCCC2)Nc1ccc(N2CCCS2(=O)=O)cc1` reads 668 s. The result for `CCOC(=O)CCCn1nc(C)c2c(C)n(-c3ccccc3)nc2c1=O` reads 829 s; that for `CCC1(O)CCC12CCN(C(=O)CC1CCN(C(C)=O)CC1)CC2` (stereo not given), 629 s; that for `COc1ccc(-c2nnc(Cc3nc(-c4ccc(C)c(C)c4)no3)o2)cc1`, 1110 s. `CCc1nc2c(NC(=O)c3ccc(C)c(F)c3)cccn2n1` displayed an RP-LC retention time of 850 s. As for `CSc1cccc(NC(=O)Cn2cnc3c(sc4nc(-c5ccccc5)ccc43)c2=O)c1`, the RP-LC retention time amounted to 1040 s.

`CCOc1cc(C(=O)NC2CCN(c3cc(-c4ccc(OC)cc4)[nH]n3)C2)cc(OCC)c1OCC` (stereo not given) registered an RP-LC retention time of 806 s. For `c1ccc(CSc2ccc(-c3ccc4c(c3)OCO4)nn2)nc1` the value was 617 s; for `CCOc1ccc(-c2[nH]ncc2CNS(=O)(=O)c2ccc(C(F)(F)F)cc2)cc1`, 918 s; for `CC(C)n1c(=O)sc2cc(S(=O)(=O)N3CCC(C(=O)NCCc4cccs4)CC3)ccc21`, 910 s. On to `O=C(NCCOc1cc(N2CCCC2)ncn1)NCc1ccccc1`, for which the RP-LC retention time stood at 575 s.

`CC(C)(C)C(O)CCNC(=O)C(=O)NC1CC1` (stereo not given) showed an RP-LC retention time of 622 s. Take `CCCN1CCN(C(=O)CCc2c(C)c(C(=O)OCC)n(C)c2C)CC1`: the RP-LC retention time came to 641 s. The result for `CC1Oc2ccccc2N(CC(=O)N2CCN(c3cc(=O)n(C)c(=O)n3C)CC2)C1=O` (stereo not given) reads 656 s. `Cc1ncsc1C1N(C2CCN(C(=O)Cn3ccnc3)CC2)C(=O)C12CCCC2` (stereo not given): the RP-LC retention time came to 594 s. The molecule `COc1ccc(S(=O)(=O)N2CCCC(C(=O)NCC3CCCO3)C2)cc1OC` (stereo not given) came in with an RP-LC retention time of 684 s. For `O=C(CSc1nc2ncccc2[nH]1)N1CCN(c2ccc(F)cc2)CC1` the value was 649 s. The result for `O=C(NCC#CCN1CCc2ccccc2C1)NC1CCCCC1` reads 566 s; that for `Cc1cc(-c2nnc(NC(=O)C3CCCN(S(=O)(=O)c4cccs4)C3)o2)nn1C` (stereo not given), 696 s. For `Cc1nc(C(=O)NCCc2ccc(Cl)cc2)c(C)n1C1CCN(S(C)(=O)=O)CC1` the value was 689 s; for `CCCNC(=O)c1c(C)sc2ccn(Cc3ccc(F)cc3)c(=O)c12`, 863 s; for `O=C(NCc1cccc(F)c1)C1CCN(c2cnc3nccnc3c2)CC1`, 680 s. Consider `O=C(CSc1nc2ncccc2[nH]1)NC1CCCC1`, for which the RP-LC retention time came to 585 s. `Cc1ccc(Nc2c(-c3ccc(N(C)C)cc3)nc3ccc(C)cn23)cc1` gave an RP-LC retention time of 839 s. For `CCc1ccc(C(=O)Nc2ccc3c(c2)Sc2ncccc2C(=O)N3C)cc1` the value was 818 s; for `CC(C)N1CCN(C(=O)C2CCc3sc(C(=O)N4CCCCCC4)cc3C2)CC1` (stereo not given), 619 s.

In turn, `O=C(Cn1cnc2nc3c(cc2c1=O)CCCC3)Nc1cccc(C(F)(F)F)c1` had an RP-LC retention time of 823 s. As for `CCOC(=O)c1ccc(NC(=O)c2ccc3c(c2)N(C)C2CCCCN2C3=O)cc1` (stereo not given), the RP-LC retention time was 896 s. For `O=C(Cc1c[nH]c2ncccc12)NCc1ccc(Br)cc1` the value was 666 s. For `COc1ccc(-c2nnc(CC(=O)N3CCC4(CC3)OCCO4)o2)cc1` the value was 681 s; for `COc1ccc(OC)c(CNC(=O)C2CCCN(c3ccc(=O)n(-c4ccc(C)c(Cl)c4)n3)C2)c1` (stereo not given), 924 s; for `COc1ccc(-c2noc(-c3ccc(N4CCN(c5ccccn5)CC4)nc3)n2)cc1`, 764 s. The result for `CNC(=O)[C@@H]1CN(C(=O)CCc2c(C)noc2C)C[C@H]1c1n[nH]c(C)n1` reads 568 s; that for `CC(C)c1cccc(NC(=O)Cn2cnc3nc(N4CCC(C(=O)NC5CC5)CC4)sc3c2=O)c1`, 743 s. Regarding `COc1ccc(NC(=O)C(C)C2CCN(C(=O)Nc3ccccc3)CC2)c(OC)c1` (stereo not given), the RP-LC retention time turned out to be 810 s. The result for `COc1cccc2cc(-c3nnc(NC(=O)c4ccc([N+](=O)[O-])s4)o3)oc12` reads 965 s; that for `COc1cccc(-c2nc(-c3cn(Cc4cccc(F)c4)nn3)no2)c1`, 995 s. `Cc1cc(C(=O)Nc2nc(-c3ccc(Cl)cc3)c(C)s2)no1` returned an RP-LC retention time of 1110 s. In turn, `CC(C)CNC(=O)c1ccc2nc(CCc3ccc(NC(=O)C(C)C)cc3)[nH]c2c1` registered an RP-LC retention time of 644 s.

`COc1ccc(-c2ccnc3nc(C(C)C)nn23)cc1` registered an RP-LC retention time of 845 s. The result for `COc1ccc2nc(C(=O)NCc3ccc(F)cc3)cn2n1` reads 783 s.
